# According to the supplement of paper PMC11451515:
# System: SEM cells
# Assay: cell viability relative to DMSO control; higher = less cytotoxic
# Details: 48 h
# In short: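 NOMO1 or SEM cells were plated at 500 cells/well and P12-Ichikawa cells at 1000 cells/well in 1536-well plates (5 μl), after each leukemia line had been adapted for at least four passages in each medium. Pin dosing delivered library compounds in DMSO at 11 threefold concentrations, 47 μM to 0.79 nM. CellTiter-Glo One luminescence was read after 48 h at 37°C. Viability is reported as a per-plate percentage of DMSO wells, with cell-free wells as background.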
# [1] = HPLM + 10% dialyzed FBS, 0.000781 µM
# [2] = HPLM + 10% dialyzed FBS, 0.00234 µM
# [3] = HPLM + 10% dialyzed FBS, 0.00702 µM
# [4] = HPLM + 10% dialyzed FBS, 0.0211 µM
# [5] = HPLM + 10% dialyzed FBS, 0.0632 µM
# [6] = HPLM + 10% dialyzed FBS, 0.19 µM
# [7] = HPLM + 10% dialyzed FBS, 0.569 µM
# [8] = HPLM + 10% dialyzed FBS, 1.71 µM
# [9] = HPLM + 10% dialyzed FBS, 5.12 µM
# [10] = HPLM + 10% dialyzed FBS, 15.4 µM
# [11] = HPLM + 10% dialyzed FBS, 46.1 µM
# [12] = RPMI 5 mM glucose + 10% dialyzed FBS, 0.000781 µM
# [13] = RPMI 5 mM glucose + 10% dialyzed FBS, 0.00234 µM
# [14] = RPMI 5 mM glucose + 10% dialyzed FBS, 0.00702 µM
# [15] = RPMI 5 mM glucose + 10% dialyzed FBS, 0.0211 µM
# [16] = RPMI 5 mM glucose + 10% dialyzed FBS, 0.0632 µM
# [17] = RPMI 5 mM glucose + 10% dialyzed FBS, 0.19 µM
# [18] = RPMI 5 mM glucose + 10% dialyzed FBS, 0.569 µM
# [19] = RPMI 5 mM glucose + 10% dialyzed FBS, 1.71 µM
# [20] = RPMI 5 mM glucose + 10% dialyzed FBS, 5.12 µM
# [21] = RPMI 5 mM glucose + 10% dialyzed FBS, 15.4 µM
# [22] = RPMI 5 mM glucose + 10% dialyzed FBS, 46.1 µM
# [23] = RPMI 5 mM glucose + 10% FBS, 0.000781 µM
# [24] = RPMI 5 mM glucose + 10% FBS, 0.00234 µM
# [25] = RPMI 5 mM glucose + 10% FBS, 0.00702 µM
# [26] = RPMI 5 mM glucose + 10% FBS, 0.0211 µM
# [27] = RPMI 5 mM glucose + 10% FBS, 0.0632 µM
# [28] = RPMI 5 mM glucose + 10% FBS, 0.19 µM
# [29] = RPMI 5 mM glucose + 10% FBS, 0.569 µM
# [30] = RPMI 5 mM glucose + 10% FBS, 1.71 µM
# [31] = RPMI 5 mM glucose + 10% FBS, 5.12 µM
# [32] = RPMI 5 mM glucose + 10% FBS, 15.4 µM
# [33] = RPMI 5 mM glucose + 10% FBS, 46.1 µM
Compound,cell viability [1] [%],cell viability [2] [%],cell viability [3] [%],cell viability [4] [%],cell viability [5] [%],cell viability [6] [%],cell viability [7] [%],cell viability [8] [%],cell viability [9] [%],cell viability [10] [%],cell viability [11] [%],cell viability [12] [%],cell viability [13] [%],cell viability [14] [%],cell viability [15] [%],cell viability [16] [%],cell viability [17] [%],cell viability [18] [%],cell viability [19] [%],cell viability [20] [%],cell viability [21] [%],cell viability [22] [%],cell viability [23] [%],cell viability [24] [%],cell viability [25] [%],cell viability [26] [%],cell viability [27] [%],cell viability [28] [%],cell viability [29] [%],cell viability [30] [%],cell viability [31] [%],cell viability [32] [%],cell viability [33] [%]
CC(C)C[C@@H](C(=O)N[C@H](C(=O)OC1CCCC1)c1ccccc1)[C@H](O)C(=O)NO,125,119,123,136,120,122,117,89.2,105,104,38,113,113,111,114,102,106,101,72.8,83.4,65.9,23.2,–,–,–,–,–,–,–,–,–,–,–
NCC/1=C/NC(=S)N1[C@H]2CCC3=C(F)C=C(F)C=C3C2,102,107,110,109,93.3,102,105,120,99.5,94.5,43.8,–,–,–,–,–,–,–,–,–,–,–,118,122,123,119,112,114,120,115,115,108,15.4
O=C1N\N=C(\C[C@@H]2CCN(C2)C(=O)C3CC3)N1C4=CC=C(C=C4)C5=CC=C6OC=CC6=C5,77.5,76.9,80.2,85.4,70.8,61.7,78.5,71.3,77.8,37.1,45.6,73.3,65,79.9,84.3,81.5,56.5,80.1,82.3,96.6,46.5,31.7,109,116,120,107,113,76.7,110,97.1,125,64.3,51.9
COc1ccc(-c2cc3c(C)nc(N)nc3n([C@H]3CC[C@H](OCCO)CC3)c2=O)cn1,99.4,91.8,84.6,77.2,70.5,64.9,47,32.6,24.3,6.37,1,79.7,86.1,75.4,75.3,69.7,58.9,46.4,34.7,29.3,14.6,1.67,105,105,97.8,99.8,79.8,62.1,55.3,29.1,29.6,9.56,1.08
CN1\C(=C(O)/C2=C(C=C(Cl)S2)[S+]1([O-])=O)C(=O)NC3=NC=CC=C3,124,130,119,24.6,127,114,114,114,112,101,106,125,123,118,25.3,123,134,104,102,103,111,87.7,91.4,88,82.7,14.3,88.3,88.1,68.8,85.4,99.6,87.5,74.8
CC/C(=C(\c1ccccc1)c1ccc(OCCN(C)C)cc1)c1ccccc1,80.9,97.6,107,103,74.6,102,94,108,96.3,86.2,16.8,87.4,87.2,102,95.2,81.7,115,99.4,96.3,95.2,93.9,13,98.1,99.7,95.8,93.8,66.7,95,99.2,99.9,90.5,91.6,12.5
CCCCC(F)(F)[C@@]1(O)CC[C@H]2[C@@H](CC(=O)[C@@H]2CCCCCCC(=O)O)O1,120,124,123,121,112,110,118,116,101,91.6,98.6,–,–,–,–,–,–,–,–,–,–,–,–,–,–,–,–,–,–,–,–,–,–
CCN(CC)CCNC(=O)c1ccc2nc(-c3ccccc3)c(-c3ccc(CN4CCC(n5c(=O)[nH]c6ccccc65)CC4)cc3)nc2c1,108,116,120,103,83.8,54,36.8,26.7,4.83,4.21,3.45,117,112,127,92.2,75.7,56.5,45.8,32.6,13.6,5.86,3.2,108,106,124,83.8,56.4,34.4,32.9,28.9,11,7.63,3.28
COC(=O)[C@@H]1CC2=CC(=O)CC[C@]2(C)[C@@]23O[C@@H]2C[C@@]2(C)[C@@H](CC[C@@]24CCC(=O)O4)[C@H]13,87.9,88.3,94.7,100,96.1,121,113,115,115,102,111,87.5,93,112,101,113,107,119,116,122,130,125,105,108,113,98.1,116,115,97.4,114,122,106,121
CCCC[N+]1(C)[C@@H]2CC(OC(=O)[C@H](CO)c3ccccc3)C[C@H]1[C@@H]1O[C@@H]12 (stereo not given in full),112,113,120,125,118,126,110,127,109,131,123,–,–,–,–,–,–,–,–,–,–,–,–,–,–,–,–,–,–,–,–,–,–
NC(=O)[C@@H](CCC(F)(F)F)N(Cc1ccc(-c2ncon2)cc1F)[S+](=O)([O-])c1ccc(Cl)cc1,96.6,106,102,106,103,98.8,81.4,90.9,91.5,72.2,4.51,84.4,98.6,98.2,98.7,86.3,88.6,95.8,79.5,70.9,52.3,2.93,114,108,104,114,114,92.9,83.8,81.9,84.3,30,2.87
CCOC\1=C(/C(=O)NC2=CC=C(OC3=C(Cl)C(=NC=C3)N)C(=C2)F)C(=O)N(\C=C1)C4=CC=C(F)C=C4,95.5,97.7,98.4,94.7,91.1,76.8,63.3,50.6,32.8,28.9,15,92.1,83.9,96,90.1,82.4,76.4,57,40,33.9,22.9,6.07,122,118,105,95.9,98.4,91.1,75.5,53.3,39.7,27.5,6.35
Cc1ccccc1C(C(=O)NC1CCCC1)N(C(=O)Cn1cnc2ccccc21)c1cccc(F)c1 (stereo not given),133,114,119,113,112,113,124,119,108,111,80.9,119,107,128,125,137,119,120,113,126,118,84.9,120,126,121,128,127,122,126,122,122,112,83
COC1=C(CC=C(C)C)C2=C(\C=C/C(=O)O2)C=C1,83.3,79.7,80.4,89.5,76.9,90.1,74.6,98.6,71.8,71.1,58.5,108,118,121,103,99.7,113,115,91.8,85,90.2,54.2,93.2,103,95.4,117,102,112,100,81.4,77.5,65.9,53.6
CC(=O)OCC(CCn1cnc2cnc(N)nc21)COC(C)=O,83.4,65.5,93.6,84.8,97.3,101,105,101,97.7,109,90.8,79.3,79.8,74.9,81.2,96,95.5,103,97,110,97.9,95.6,85.9,71.3,69.2,97.5,88.1,98.3,98.2,103,97.4,103,109
NNC(=O)c1ccncc1,84.6,79.5,73.6,92.9,93.8,86.6,29.2,42.5,95.7,92.3,82.4,107,110,92.4,97.2,98.1,105,37.2,34.9,101,95.6,82.8,107,98.6,97.2,98.7,116,115,37.3,46.7,91.6,94.9,87.6
CN1CCN(CC1)C/2=N/C3=CC=CC=C3NC4=C2C=C(C)S4,91,105,114,106,102,119,115,114,117,119,105,95.6,99.3,105,89.4,97.1,118,112,110,96,100,93.3,99.3,97.4,87.4,88.6,96.2,104,95.5,94.5,101,94.2,88.6
